Columns and labels:
[1] = QX314 with the addition of surfactants (Kohane, PNAS 2010); cited from earlier work
back skin of SD rat = assay: Local anesthetic effect by subcutaneous infiltration (back skin, Von Frey fiber 100 g); format: in vivo; settings: SD rats, 0.5 mL subcutaneous in saline; compounds 6 mmol/L, controls 0.75% (22 mmol/L) and 2% (74 mmol/L)
Experimental: After the back of SD rat weighing 250-300 g (half female and half male) was shaved and disinfected, a circle with a diameter of about 1.5 cm was drawn on the side of the exposed back, and the circle is divided into 6 equal parts. […] Among the Von Frey fiber yarns, the one with a strength of 100 g was bound to the needle for local skin stimulation. One minute After the drug was injected, the above method was used to stimulate in 6 divisions. […] If back skin contraction was observed, the local anesthetic effect was considered as loss. […] Each compound was tested with 10 rats.

rat's sciatic nerve = assay: Local anesthetic effect after injection near the rat sciatic nerve (von Frey stimulation; Postural Extensor Thrust for motor function); format: in vivo; settings: SD rats, 0.5 mL near sciatic nerve, compounds 20 mmol/mL; for Duration of motor block: Postural Extensor Thrust; for Duration of motor block / Duration of sensory block: levobupivacaine 0.75%, lidocaine 2%; for Local anesthesia onset time: levobupivacaine 0.75% (22 mmol/L), lidocaine 2% (74 mmol/L); for Duration of sensory block: von Frey
Experimental: Dosage: for lidocaine group, lidocaine was formulated with distilled water into a solution at the concentration of 2% (74 mmol/L); for levobupivacaine group, levobupivacaine was formulated with distilled water into a solution at the concentration of 0.75% (22 mmol/L); the compound of the present invention was formulated with distilled water into a solution at the concentration of […].
The injection volume for each rat was 0.5 mL, which was guided by a nerve locator and injected near the rat's sciatic nerve. Using von Frey stimulator, the rats were stimulated the soles of the feet in the injected side, to observe the effect of local anesthesia. Meanwhile, Postural Extensor Thrust (PET) was used to evaluate the motor function of the rat: the rat was lifted vertically and the hindlimb in the injected side pedaled on the platform of the electronic balance. […] When the limb was completely paralyzed, the reading was the limb's own weight, about 20 g. If the measured value was more than half of the difference between the baseline and the limb weight, the motor function was regarded as recovery, and if the value was […], the motor function was regarded as loss.

For `CC[N+](CC)(CC)CC(=O)Nc1c(C)cccc1C` [QX314], which “duration of local anesthesia” value [1] is on record?
Its value is “more than 8 hours”.

Which “Duration of local anesthesia (median)” value (back skin of SD rat) does the source give for `CCCCC[N+](CCCCCO)(CCCCCCN1CCCCC1C(=O)Nc1c(C)cccc1C)CC(=O)Nc1c(C)cccc1C.[Br-]` (stereo not shown) [Example 12 product] here?
Its value is 66 h.

And the “Local anesthesia onset time (median)” value (back skin of SD rat)?
The value was 3 min.

What about the “Duration of motor block” value (rat's sciatic nerve) of the same molecule?
Its value is 11 h.

And the “Local anesthesia onset time” value (rat's sciatic nerve)?
Its value is 5 min.

What about the “Duration of sensory block” value (rat's sciatic nerve) of the same molecule?
Its value is 42 h.

With `CCCOCCCC[N+](CCCCCC(=O)O)(CCCSCCCN1CCCCC1C(=O)Nc1c(C)cccc1C)CC(=O)Nc1c(C)cccc1C` (stereo not shown) [Example 29 product] as the molecule, how does the “Duration of local anesthesia (median)” value (back skin of SD rat) read?
The value was 73 h.

What about the “Local anesthesia onset time (median)” value (back skin of SD rat) of the same molecule?
Its value is 2 min.

What about the “Duration of motor block” value (rat's sciatic nerve) of the same molecule?
Its value is 15 h.

And the “Local anesthesia onset time” value (rat's sciatic nerve)?
Its value is 5 min.

What about the “Duration of sensory block” value (rat's sciatic nerve) of the same molecule?
The value was 50 h.

With `CCSCC[N+](CCO)(CCCCCCN1CCCC1C(=O)Nc1c(C)cccc1C)CC(=O)Nc1c(C)cccc1C` (stereo not shown) [Example 62 product] as the molecule, how does the “Duration of local anesthesia (median)” value (back skin of SD rat) read?
The value was 88 h.

And the “Local anesthesia onset time (median)” value (back skin of SD rat)?
The value was 1 min.

And the “Duration of motor block” value (rat's sciatic nerve)?
Its value is 21 h.

And the “Local anesthesia onset time” value (rat's sciatic nerve)?
Its value is 5 min.

What about the “Duration of sensory block” value (rat's sciatic nerve) of the same molecule?
The value was 51 h.

For `CCCCCC[N+](CCCCCC)(CCOCCOCCN1CCCCC1C(=O)Nc1c(C)cc(O)cc1C)CC(=O)Nc1c(C)cc(OC)cc1C` (stereo not shown) [Example 4 product], which “Duration of local anesthesia (median)” value (back skin of SD rat) is on record?
Its value is 35 h.

What about the “Local anesthesia onset time (median)” value (back skin of SD rat) of the same molecule?
The value was 1 min.

What about the “Duration of motor block” value (rat's sciatic nerve) of the same molecule?
The value was 13 h.

And the “Local anesthesia onset time” value (rat's sciatic nerve)?
Its value is 7 min.

And the “Duration of sensory block” value (rat's sciatic nerve)?
The value was 23 h.

With `CCCCC[N+](CCCCCCN1CCC1C(=O)Nc1c(C)cccc1C)(CCSCC)CC(=O)Nc1c(C)cccc1C` (stereo not shown) [Example 63 product] as the molecule, how does the “Duration of local anesthesia (median)” value (back skin of SD rat) read?
Its value is 79 h.

What about the “Local anesthesia onset time (median)” value (back skin of SD rat) of the same molecule?
The value was 1 min.

What about the “Duration of motor block” value (rat's sciatic nerve) of the same molecule?
The value was 14 h.

What about the “Local anesthesia onset time” value (rat's sciatic nerve) of the same molecule?
Its value is 3 min.

And the “Duration of sensory block” value (rat's sciatic nerve)?
The value was 64 h.

Which “Duration of local anesthesia (median)” value (back skin of SD rat) does the source give for `Cc1cccc(C)c1NC(=O)C[N+]1(CCCCN2CCCCC2C(=O)Nc2c(C)cccc2C)C(C)COCC1C` (stereo not shown) [Example 51 product] here?
The value was 89 h.

What about the “Local anesthesia onset time (median)” value (back skin of SD rat) of the same molecule?
The value was 1 min.

And the “Duration of motor block” value (rat's sciatic nerve)?
Its value is 19 h.

And the “Local anesthesia onset time” value (rat's sciatic nerve)?
Its value is 5 min.

And the “Duration of sensory block” value (rat's sciatic nerve)?
Its value is 44 h.

For `CCCCC[N+](CCCCCCN1CCCCC1C(=O)Nc1c(C)cccc1C)(CCCOC)CC(=O)Nc1c(C)cccc1C.[Br-]` (stereo not shown) [Example 23 product], which “Duration of local anesthesia (median)” value (back skin of SD rat) is on record?
Its value is 83 h.

What about the “Local anesthesia onset time (median)” value (back skin of SD rat) of the same molecule?
The value was 2 min.

And the “Duration of motor block” value (rat's sciatic nerve)?
The value was 14 h.

And the “Local anesthesia onset time” value (rat's sciatic nerve)?
Its value is 5 min.

And the “Duration of sensory block” value (rat's sciatic nerve)?
Its value is 54 h.

Which results are given for `CCCCC[N+](CCO)(CCCCCCN1CCCCC1C(=O)Nc1c(C)cccc1C)CC(=O)Nc1c(C)cccc1C.[Br-]` (stereo not shown) [Example 13 product]?
Duration of local anesthesia (median) (back skin of SD rat): 53 h; Local anesthesia onset time (median) (back skin of SD rat): 4 min; Duration of motor block (rat's sciatic nerve): 14 h; Local anesthesia onset time (rat's sciatic nerve): 4 min; Duration of sensory block (rat's sciatic nerve): 55 h

With `CCCCC[N+](CCCCO)(CCCCCCN1CCC1C(=O)Nc1c(C)cccc1C)CC(=O)Nc1c(C)cccc1C` (stereo not shown) [Example 64 product] as the molecule, how does the “Duration of local anesthesia (median)” value (back skin of SD rat) read?
Its value is 69 h.

What about the “Local anesthesia onset time (median)” value (back skin of SD rat) of the same molecule?
The value was 1 min.

And the “Duration of motor block” value (rat's sciatic nerve)?
Its value is 13 h.

And the “Local anesthesia onset time” value (rat's sciatic nerve)?
Its value is 3 min.

And the “Duration of sensory block” value (rat's sciatic nerve)?
The value was 67 h.

With `CCOCC[N+](CCO)(CCCCCCN1CCCC1C(=O)Nc1c(C)cccc1C)CC(=O)Nc1c(C)cccc1C` (stereo not shown) [Example 61 product] as the molecule, how does the “Duration of local anesthesia (median)” value (back skin of SD rat) read?
Its value is 86 h.

What about the “Local anesthesia onset time (median)” value (back skin of SD rat) of the same molecule?
The value was 1 min.

And the “Duration of motor block” value (rat's sciatic nerve)?
Its value is 11 h.

What about the “Local anesthesia onset time” value (rat's sciatic nerve) of the same molecule?
The value was 3 min.

What does the source list for `CCCCC[N+](CO)(CCCCCCN1CCCCC1C(=O)Nc1c(C)cccc1C)CC(=O)Nc1c(C)cccc1C.[Br-]` (stereo not shown) [Example 15 product]?
Duration of local anesthesia (median) (back skin of SD rat): 73 h; Local anesthesia onset time (median) (back skin of SD rat): 4 min; Duration of motor block (rat's sciatic nerve): 16 h; Local anesthesia onset time (rat's sciatic nerve): 5 min; Duration of sensory block (rat's sciatic nerve): 44 h

With `Cc1cccc(C)c1NC(=O)C[N+]1(CCCCN2CCCCC2C(=O)Nc2c(C)cccc2C)CC(C)OC(C)C1` (stereo not shown) [Example 50 product] as the molecule, how does the “Duration of local anesthesia (median)” value (back skin of SD rat) read?
The value was 56 h.

What about the “Local anesthesia onset time (median)” value (back skin of SD rat) of the same molecule?
The value was 2 min.

And the “Duration of motor block” value (rat's sciatic nerve)?
Its value is 13 h.

And the “Local anesthesia onset time” value (rat's sciatic nerve)?
Its value is 5 min.

And the “Duration of sensory block” value (rat's sciatic nerve)?
Its value is 56 h.

Which results are given for `CCCCC[N+](CCCCC)(CCCN1CCCCC1C(=O)Nc1c(C)cccc1C)CC(=O)Nc1c(C)cccc1C.Cl.[Br-]` (stereo not shown) [Example 10 product]?
Duration of local anesthesia (median) (back skin of SD rat): 56 h; Local anesthesia onset time (median) (back skin of SD rat): 1 min; Duration of motor block (rat's sciatic nerve): 19 h; Local anesthesia onset time (rat's sciatic nerve): 3 min; Duration of sensory block (rat's sciatic nerve): 25 h

With `CCCCC[N+](CCCCO)(CCCCCCN1CCCCC1C(=O)Nc1c(C)cccc1C)CC(=O)Nc1c(C)cccc1C.[Br-]` (stereo not shown) [Example 16 product] as the molecule, how does the “Duration of local anesthesia (median)” value (back skin of SD rat) read?
The value was 54 h.

And the “Local anesthesia onset time (median)” value (back skin of SD rat)?
Its value is 2 min.

And the “Duration of motor block” value (rat's sciatic nerve)?
The value was 17 h.

What about the “Local anesthesia onset time” value (rat's sciatic nerve) of the same molecule?
The value was 5 min.

What about the “Duration of sensory block” value (rat's sciatic nerve) of the same molecule?
The value was 60 h.
